Activity calls are given as the source filed them.
Legend:
[1] = target: Mitogen-activated protein kinase 10 (Homo sapiens, UniProt P53779); experiment: Dose response biochemical screening assay for inhibitors of c-Jun N-Terminal Kinase 3 (JNK3). [Related pubchem assays: 746 ]
[2] = target: Sphingosine 1-phosphate receptor 2 (Homo sapiens, UniProt O95136); experiment: Dose Response Cell Based Assay for Agonists of the S1P2 Receptor. [Related pubchem assays: 729, 736, 843 ]; type: functional
Estrogen receptor [3] = target: T1, Estrogen receptor (Homo sapiens, UniProt P03372); experiment: ERα coactivator recruitment enhancers – biochemical, TR-FRET, ERα LBD, dose response (AID 737)
T1 sequence (P03372 whole entry): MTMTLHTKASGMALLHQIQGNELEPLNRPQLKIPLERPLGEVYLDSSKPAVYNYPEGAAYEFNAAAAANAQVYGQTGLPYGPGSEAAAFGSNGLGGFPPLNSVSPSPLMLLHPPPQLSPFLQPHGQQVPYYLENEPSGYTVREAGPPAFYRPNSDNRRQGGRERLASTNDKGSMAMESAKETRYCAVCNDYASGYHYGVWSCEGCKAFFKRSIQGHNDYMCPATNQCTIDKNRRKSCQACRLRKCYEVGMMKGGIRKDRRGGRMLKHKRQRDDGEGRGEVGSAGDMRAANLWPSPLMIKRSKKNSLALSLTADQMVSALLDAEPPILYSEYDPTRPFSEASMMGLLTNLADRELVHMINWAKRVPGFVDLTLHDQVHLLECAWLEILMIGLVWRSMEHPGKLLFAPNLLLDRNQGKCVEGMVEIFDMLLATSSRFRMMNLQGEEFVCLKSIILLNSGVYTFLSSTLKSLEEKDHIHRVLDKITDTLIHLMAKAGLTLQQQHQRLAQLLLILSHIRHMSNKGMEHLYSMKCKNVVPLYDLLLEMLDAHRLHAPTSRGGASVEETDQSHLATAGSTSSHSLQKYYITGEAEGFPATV

[4] = cytotoxicity toward Colo320 cells – cell-based, CellTiter-Glo luminescence, IC50, dose response (AID 1117334); type: functional; conditions: COLO 320
[5] = SNU-C1 cell viability reduction, dose response, CellTiter-Glo luminescence (AID 1117323); type: functional, cell-based
[6] = CellTiter-Glo luminescence survival assay, SW480 colon tumor line, concentration-response curve, half-maximal inhibitory concentration (AID 1117338); type: functional
[7] = RKO cell viability reduction, dose response, CellTiter-Glo luminescence (AID 1117322); type: functional
[8] = cytotoxicity toward HT-29 cells – cell-based, CellTiter-Glo luminescence, IC50, dose response (AID 1117330); type: functional
[9] = Reduced DLD-1 viability, concentration-response, CellTiter-Glo luminescence (AID 1117352); type: functional
[10] = cytotoxicity toward HCT116 cells – cell-based, CellTiter-Glo luminescence, IC50, dose response (AID 1117332); type: functional; conditions: HCT-116
[11] = HCT116 cell viability decrease, GSK3B pretreatment – CellTiter-Glo, IC50, dose response (AID 1117339); type: functional; conditions: HCT-116
[12] = target: 5-hydroxytryptamine receptor 1A (Homo sapiens, UniProt P08908); type: functional
[13] = antiviral protection against BTV-induced cell death – arbovirus, BSR cells, confirmation (AID 1250); type: functional;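 further: protection from viral cytopathic effect measured as cell viability by ATP luminescence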
NADPH oxidase 1 = target: T2, NADPH oxidase 1 (Homo sapiens, UniProt Q9Y5S8); type: functional, cell-based;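 further: Cell-based assay with luminescence read-out, IC50 derived from inhibitor dose-response curves; intracellular ROS from endogenous NOX1 in intact HT29 colon cancer cells; potency of inhibitors that lower the ROS luminescence signal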
T2 sequence (Q9Y5S8 whole entry): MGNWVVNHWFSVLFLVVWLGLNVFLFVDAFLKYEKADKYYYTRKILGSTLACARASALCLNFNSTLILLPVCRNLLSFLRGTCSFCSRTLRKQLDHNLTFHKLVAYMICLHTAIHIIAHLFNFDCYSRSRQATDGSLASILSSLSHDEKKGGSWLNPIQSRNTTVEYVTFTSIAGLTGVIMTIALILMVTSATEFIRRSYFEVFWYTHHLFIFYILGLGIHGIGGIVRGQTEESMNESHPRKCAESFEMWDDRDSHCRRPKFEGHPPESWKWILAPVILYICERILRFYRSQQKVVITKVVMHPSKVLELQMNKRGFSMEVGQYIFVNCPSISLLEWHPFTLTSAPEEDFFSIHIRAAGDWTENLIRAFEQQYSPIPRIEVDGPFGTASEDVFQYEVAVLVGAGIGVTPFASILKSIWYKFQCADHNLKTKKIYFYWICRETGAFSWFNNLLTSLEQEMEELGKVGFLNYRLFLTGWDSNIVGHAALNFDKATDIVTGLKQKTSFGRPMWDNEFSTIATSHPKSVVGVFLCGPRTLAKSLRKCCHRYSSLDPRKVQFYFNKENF

[14] = M. tuberculosis growth inhibition, HTS (AID 449762); type: functional
[15] = NIH3T3 cell viability loss – ATP luminescence, mouse fibroblasts, counter-screen, dose response (AID 2010); type: functional, cell-based;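 further: cells exposed to compound for about 90 hours before reading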
[16] = Trypanosoma cruzi growth suppression in host cells – NIH3T3 host cells, beta-gal luminescence, confirmation (AID 2044); type: functional, cell-based;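 further: intracellular parasites grown in NIH/3T3 mouse fibroblasts as host cells; luminescent beta-galactosidase reporter signal from transgenic T. cruzi replicating inside host cells; inhibitors lower the luminescence signal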
Cytochrome P450 3A4 = Cytochrome P450 3A4 (Homo sapiens, UniProt P08684);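 further: CYP3A4 tested as one member of a cytochrome P450 panel screen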
[17] = microbe, parasite or virus in culture; type: functional; conditions: Mycobacterium tuberculosis
[18] = target: T3, Short transient receptor potential channel 4 (Mus musculus, UniProt Q9QUQ5); experiment: calcium entry via TRPC4 opening agents – cell-based, HEK293 TRPC4/mu-opioid, Fluo-4 calcium, dose response (AID 434937); type: functional
T3 sequence (Q9QUQ5 whole entry): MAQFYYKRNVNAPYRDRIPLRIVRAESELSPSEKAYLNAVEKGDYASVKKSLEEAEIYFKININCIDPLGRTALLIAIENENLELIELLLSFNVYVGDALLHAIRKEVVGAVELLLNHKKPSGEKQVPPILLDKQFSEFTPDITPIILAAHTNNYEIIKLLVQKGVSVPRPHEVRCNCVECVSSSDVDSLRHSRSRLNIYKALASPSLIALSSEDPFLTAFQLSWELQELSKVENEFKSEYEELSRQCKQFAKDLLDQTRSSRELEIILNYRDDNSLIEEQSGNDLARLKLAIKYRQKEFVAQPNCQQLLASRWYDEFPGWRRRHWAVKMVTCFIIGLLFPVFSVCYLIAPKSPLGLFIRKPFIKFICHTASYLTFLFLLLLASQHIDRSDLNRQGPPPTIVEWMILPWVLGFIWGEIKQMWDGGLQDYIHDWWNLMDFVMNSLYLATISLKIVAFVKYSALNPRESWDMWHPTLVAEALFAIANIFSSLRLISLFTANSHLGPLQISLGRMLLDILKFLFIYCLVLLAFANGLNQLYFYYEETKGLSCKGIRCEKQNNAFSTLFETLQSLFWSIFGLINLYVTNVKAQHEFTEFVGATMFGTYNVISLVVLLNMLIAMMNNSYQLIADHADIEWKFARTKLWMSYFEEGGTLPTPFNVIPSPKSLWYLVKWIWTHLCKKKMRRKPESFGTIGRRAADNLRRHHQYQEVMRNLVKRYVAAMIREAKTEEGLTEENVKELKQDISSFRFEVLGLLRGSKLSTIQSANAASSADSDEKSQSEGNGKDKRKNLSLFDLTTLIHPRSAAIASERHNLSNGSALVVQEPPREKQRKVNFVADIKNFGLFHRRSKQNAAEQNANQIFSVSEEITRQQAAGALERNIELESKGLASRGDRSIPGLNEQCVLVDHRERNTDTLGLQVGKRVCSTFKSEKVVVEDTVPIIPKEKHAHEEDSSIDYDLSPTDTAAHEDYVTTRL

[19] = target: Inward rectifier potassium channel 2 (Mus musculus, UniProt P35561); experiment: Manual electrophysiological patch clamp assay for SAR compounds that inhibit/block inward-rectifying potassium ion channel Kir2.1. [Related pubchem assays: 1843 (Summary assay for Kir2.1 inhibitor assays.), 1672 (Primary HTS of 305616 compounds where 2592 were identified as active.)]; type: functional
[20] = Luminescence Cell-Based Dose Retest to Confirm Inhibitors of Cancer Stem Cells. [Related pubchem assays (depositor defined):AID2717, AID2721]; type: functional; conditions: Homo sapiens
[21] = target: Induced myeloid leukemia cell differentiation protein Mcl-1 (Homo sapiens, UniProt Q07820); type: functional
[22] = target: Heat shock protein HSP 90-alpha (Homo sapiens, UniProt P07900); type: functional, organism-based
Ephrin type-A receptor 4 = Ephrin type-A receptor 4 (Mus musculus, UniProt Q03137); experiment: EphA4 ligand-binding antagonists – biochemical, colorimetric, mouse EphA4, primary screen (AID 689); type: functional
H4 = experiment: Luminescence Cell-Based Dose Response HTS to Identify Activators of 5'UTR Stem-Loop Driven Prion Protein mRNA Translation in H4 Neuroglioblastoma Cells. [Related pubchem assays: 1829 (Project Summary), 1814 (Primary HTS)]; type: functional; conditions: Homo sapiens
[23] = Luminescence Cell-Based Dose Response HTS to Identify Activators of Luciferase Translation or Activity in H4 […] Cells. [Related pubchem assays: 1829 (Project Summary), 1814 (Primary HTS)]; type: functional
[24] = Luminescence Cell-Based Dose Confirmation HTS to Identify Activators of 5'UTR Stem-Loop Driven Alpha-Synuclein mRNA Translation in H4 Neuroglioblastoma Cells. [Related pubchem assays: 1829 (Project Summary), 1814 (Primary HTS)]; type: functional
[25] = M. tuberculosis H37Rv growth inhibitors, H37Rv strain (AID 1626); type: functional
Protein Tat = target: T4, Protein Tat (Human immunodeficiency virus type 1 group M subtype B (isolate HXB2)(HIV-1), UniProt P04608); type: functional;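 further: tat binding to TAR RNA read out by fluorescence polarization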
T4 sequence (P04608 whole entry): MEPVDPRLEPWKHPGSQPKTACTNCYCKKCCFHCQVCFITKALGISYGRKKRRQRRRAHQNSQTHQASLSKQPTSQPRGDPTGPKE

Estrogen receptor beta [26] = target: T5, Estrogen receptor beta (Homo sapiens, UniProt Q92731); experiment: blockers of SRC-3 recruitment to ERβ – biochemical, ELISA, streptavidin-HRP readout, orthogonal assay, confirmation (AID 1060)
Estrogen receptor [27] = target: T1, Estrogen receptor
Estrogen receptor beta [28] = target: T5, Estrogen receptor beta
[29] = target: Luciferin 4-monooxygenase (Photinus pyralis, UniProt P08659); experiment: Counter Screen for Luciferase-based Assay Positives. [Related pubchem assays: 620, 618, 411 ]
HT-1080 = experiment: HT1080 cell viability loss – fluorescence readout (AID 620); type: functional, cell-based; conditions: Homo sapiens

T5 sequence (Q92731 whole entry): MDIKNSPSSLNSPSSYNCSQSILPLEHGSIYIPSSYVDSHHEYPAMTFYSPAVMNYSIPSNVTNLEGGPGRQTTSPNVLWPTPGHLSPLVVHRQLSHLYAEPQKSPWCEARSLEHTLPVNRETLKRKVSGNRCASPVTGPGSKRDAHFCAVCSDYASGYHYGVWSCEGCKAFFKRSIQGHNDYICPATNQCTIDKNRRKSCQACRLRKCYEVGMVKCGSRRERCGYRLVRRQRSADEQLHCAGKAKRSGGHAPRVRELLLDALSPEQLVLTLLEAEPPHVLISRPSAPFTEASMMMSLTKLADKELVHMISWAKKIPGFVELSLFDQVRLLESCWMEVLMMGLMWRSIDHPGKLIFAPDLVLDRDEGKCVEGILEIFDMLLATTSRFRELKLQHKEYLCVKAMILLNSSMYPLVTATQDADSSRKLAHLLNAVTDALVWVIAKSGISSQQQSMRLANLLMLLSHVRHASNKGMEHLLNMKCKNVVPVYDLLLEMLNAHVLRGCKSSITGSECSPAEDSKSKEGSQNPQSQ
Chain of Mitogen-activated protein kinase 10 (P53779 whole entry): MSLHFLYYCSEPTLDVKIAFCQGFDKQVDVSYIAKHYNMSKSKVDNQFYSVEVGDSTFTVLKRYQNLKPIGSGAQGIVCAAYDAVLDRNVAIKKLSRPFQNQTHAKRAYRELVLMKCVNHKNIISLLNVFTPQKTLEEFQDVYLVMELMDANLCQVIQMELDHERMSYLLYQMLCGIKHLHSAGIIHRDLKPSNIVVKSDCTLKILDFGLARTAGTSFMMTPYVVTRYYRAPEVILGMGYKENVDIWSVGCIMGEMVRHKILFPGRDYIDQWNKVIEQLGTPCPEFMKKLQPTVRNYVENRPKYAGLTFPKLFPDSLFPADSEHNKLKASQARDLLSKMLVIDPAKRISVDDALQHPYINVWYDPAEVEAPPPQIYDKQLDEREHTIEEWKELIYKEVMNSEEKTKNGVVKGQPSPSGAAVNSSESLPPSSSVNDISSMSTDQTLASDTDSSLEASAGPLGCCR
Chain of 5-hydroxytryptamine receptor 1A (P08908 whole entry): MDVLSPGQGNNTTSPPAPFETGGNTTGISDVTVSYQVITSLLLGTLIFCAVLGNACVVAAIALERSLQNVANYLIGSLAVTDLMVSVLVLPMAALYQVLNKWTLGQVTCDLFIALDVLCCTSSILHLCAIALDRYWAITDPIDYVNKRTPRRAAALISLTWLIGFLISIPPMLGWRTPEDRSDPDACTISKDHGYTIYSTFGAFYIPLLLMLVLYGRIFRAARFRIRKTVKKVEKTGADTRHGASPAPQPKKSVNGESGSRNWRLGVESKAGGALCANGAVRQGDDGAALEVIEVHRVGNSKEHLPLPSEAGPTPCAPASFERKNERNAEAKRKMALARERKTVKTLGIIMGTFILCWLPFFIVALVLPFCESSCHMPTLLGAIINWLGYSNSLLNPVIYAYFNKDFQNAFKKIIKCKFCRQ
Chain of Inward rectifier potassium channel 2 (P35561 whole entry): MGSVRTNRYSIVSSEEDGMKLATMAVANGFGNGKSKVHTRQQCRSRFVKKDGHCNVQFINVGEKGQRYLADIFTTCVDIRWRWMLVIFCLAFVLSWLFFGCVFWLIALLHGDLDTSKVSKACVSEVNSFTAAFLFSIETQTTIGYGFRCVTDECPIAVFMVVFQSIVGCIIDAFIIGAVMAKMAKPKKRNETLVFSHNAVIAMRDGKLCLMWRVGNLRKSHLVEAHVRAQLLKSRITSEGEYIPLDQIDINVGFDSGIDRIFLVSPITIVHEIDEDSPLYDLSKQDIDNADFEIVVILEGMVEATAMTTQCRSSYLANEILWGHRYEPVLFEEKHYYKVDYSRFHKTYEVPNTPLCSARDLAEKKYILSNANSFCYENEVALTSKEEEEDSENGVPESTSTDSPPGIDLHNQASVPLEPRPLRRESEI
Chain of Induced myeloid leukemia cell differentiation protein Mcl-1 (Q07820 whole entry): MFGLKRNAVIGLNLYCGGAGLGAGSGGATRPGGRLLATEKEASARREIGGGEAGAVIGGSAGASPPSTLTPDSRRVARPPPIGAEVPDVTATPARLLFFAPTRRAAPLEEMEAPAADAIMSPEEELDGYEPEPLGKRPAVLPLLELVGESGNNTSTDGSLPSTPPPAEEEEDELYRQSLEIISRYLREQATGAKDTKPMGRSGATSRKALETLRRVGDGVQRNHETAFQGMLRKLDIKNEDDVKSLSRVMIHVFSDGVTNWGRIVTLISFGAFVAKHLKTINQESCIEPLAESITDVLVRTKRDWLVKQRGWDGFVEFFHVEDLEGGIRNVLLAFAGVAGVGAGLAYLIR
Chain of Sphingosine 1-phosphate receptor 2 (O95136 whole entry, the tested form may be a part): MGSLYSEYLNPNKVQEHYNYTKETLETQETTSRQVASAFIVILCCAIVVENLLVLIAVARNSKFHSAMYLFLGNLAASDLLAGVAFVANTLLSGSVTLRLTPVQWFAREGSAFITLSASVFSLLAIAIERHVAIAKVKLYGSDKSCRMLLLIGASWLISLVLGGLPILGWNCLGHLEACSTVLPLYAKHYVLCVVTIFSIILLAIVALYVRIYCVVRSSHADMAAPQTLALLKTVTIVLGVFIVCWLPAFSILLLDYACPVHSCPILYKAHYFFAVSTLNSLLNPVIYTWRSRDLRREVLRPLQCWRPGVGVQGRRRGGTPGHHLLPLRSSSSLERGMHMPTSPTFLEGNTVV
Chain of Cytochrome P450 3A4 (P08684 whole entry): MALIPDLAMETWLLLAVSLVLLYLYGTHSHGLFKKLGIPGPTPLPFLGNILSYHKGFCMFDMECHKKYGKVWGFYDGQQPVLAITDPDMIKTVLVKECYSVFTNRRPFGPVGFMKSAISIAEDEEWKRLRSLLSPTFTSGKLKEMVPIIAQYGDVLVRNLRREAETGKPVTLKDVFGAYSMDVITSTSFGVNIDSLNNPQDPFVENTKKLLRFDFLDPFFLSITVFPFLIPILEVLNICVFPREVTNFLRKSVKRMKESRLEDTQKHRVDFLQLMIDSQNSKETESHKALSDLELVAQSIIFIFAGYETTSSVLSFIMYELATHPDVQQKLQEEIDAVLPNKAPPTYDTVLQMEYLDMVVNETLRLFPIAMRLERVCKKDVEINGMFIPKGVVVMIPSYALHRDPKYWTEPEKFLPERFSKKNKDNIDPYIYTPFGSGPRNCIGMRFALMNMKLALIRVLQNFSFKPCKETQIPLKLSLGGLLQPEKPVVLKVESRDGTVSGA
Chain of Ephrin type-A receptor 4 (Q03137 whole entry): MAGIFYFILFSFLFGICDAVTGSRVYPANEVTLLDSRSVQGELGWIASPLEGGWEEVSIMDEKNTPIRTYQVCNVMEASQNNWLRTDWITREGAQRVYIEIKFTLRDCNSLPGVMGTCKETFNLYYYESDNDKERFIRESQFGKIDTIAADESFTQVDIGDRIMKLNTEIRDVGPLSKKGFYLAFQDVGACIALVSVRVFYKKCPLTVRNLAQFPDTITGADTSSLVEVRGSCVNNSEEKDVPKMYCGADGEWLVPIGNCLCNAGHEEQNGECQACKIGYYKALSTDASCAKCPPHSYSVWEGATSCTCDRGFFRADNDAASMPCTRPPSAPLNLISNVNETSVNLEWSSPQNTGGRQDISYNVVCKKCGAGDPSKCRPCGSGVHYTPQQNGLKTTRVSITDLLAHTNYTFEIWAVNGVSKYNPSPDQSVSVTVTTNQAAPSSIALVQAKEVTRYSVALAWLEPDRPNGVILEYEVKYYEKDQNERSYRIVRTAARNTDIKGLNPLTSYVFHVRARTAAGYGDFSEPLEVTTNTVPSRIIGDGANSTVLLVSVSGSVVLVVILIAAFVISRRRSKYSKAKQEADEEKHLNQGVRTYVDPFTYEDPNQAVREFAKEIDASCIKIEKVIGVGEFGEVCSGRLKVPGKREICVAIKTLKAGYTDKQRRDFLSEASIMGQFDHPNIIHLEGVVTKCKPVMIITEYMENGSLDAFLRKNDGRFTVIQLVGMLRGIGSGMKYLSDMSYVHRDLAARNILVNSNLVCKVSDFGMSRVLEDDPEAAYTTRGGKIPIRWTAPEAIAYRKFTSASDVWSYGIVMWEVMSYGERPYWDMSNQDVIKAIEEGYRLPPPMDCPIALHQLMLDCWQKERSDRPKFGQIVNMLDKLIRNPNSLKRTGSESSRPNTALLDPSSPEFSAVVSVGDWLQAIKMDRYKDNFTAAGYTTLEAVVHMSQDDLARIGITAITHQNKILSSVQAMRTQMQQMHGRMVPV
Chain of Luciferin 4-monooxygenase (P08659 whole entry): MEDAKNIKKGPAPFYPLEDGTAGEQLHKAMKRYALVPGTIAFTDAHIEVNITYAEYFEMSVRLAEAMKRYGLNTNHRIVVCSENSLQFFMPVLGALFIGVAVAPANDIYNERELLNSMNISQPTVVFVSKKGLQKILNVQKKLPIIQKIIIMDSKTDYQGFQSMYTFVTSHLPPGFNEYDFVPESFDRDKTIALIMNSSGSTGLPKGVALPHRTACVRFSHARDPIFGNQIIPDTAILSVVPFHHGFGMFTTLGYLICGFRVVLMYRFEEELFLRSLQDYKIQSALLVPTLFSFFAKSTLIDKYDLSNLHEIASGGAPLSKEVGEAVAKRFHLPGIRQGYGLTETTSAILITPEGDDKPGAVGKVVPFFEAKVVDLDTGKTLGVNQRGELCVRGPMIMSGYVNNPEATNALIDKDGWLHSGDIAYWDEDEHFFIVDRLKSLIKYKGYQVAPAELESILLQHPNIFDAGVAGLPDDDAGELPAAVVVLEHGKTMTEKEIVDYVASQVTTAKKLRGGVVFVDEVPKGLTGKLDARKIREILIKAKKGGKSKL

SMILES: COc1ccc2c(c1)c1ncn(Cc3ccco3)c(=O)c1n2C
- IC50 [1]: 90 µM (not active)

SMILES: N#CCN1CCN(CC(=O)Nc2cccc3ccccc23)CC1
- EC50 [2]: > 50 µM (not active)

SMILES: COc1cc(NC(=O)c2cccs2)c(C(=O)OCC(=O)NC(=O)NCc2ccccc2)cc1OC
- EC50 (Estrogen receptor [3]): 1.58 µM (active)

SMILES: Cc1cc2nc3c(=O)[nH]c(=O)nc-3n(C[C@H](O)[C@H](O)[C@H](O)COP(=O)(O)OP(=O)(O)OC[C@H]3O[C@@H](n4cnc5c(N)ncnc54)[C@H](O)[C@H]3O)c2cc1C
- IC50 [4]: > 20 µM (inactive)
- IC50 [5]: > 20 µM (inactive)
- IC50 [6]: > 20 µM (inactive)
- IC50 [7]: > 20 µM (inactive)
- IC50 [8]: > 20 µM (inactive)
- IC50 [9]: > 20 µM (inactive)
- IC50 [10]: > 20 µM (inactive)
- IC50 [11]: > 20 µM (inactive)

SMILES: Cc1[nH]c2c(C(F)(F)F)cccc2c1CCN
- EC50 [12]: > 50 µM (not active)

SMILES: O=C(Nc1nc(-c2ccco2)cs1)c1ccccc1
- IC50 [13]: 30.7 µM (active)

SMILES: O=C1Nc2ccccc2/C1=N/NC(=S)Nc1ccccc1
- IC50 (NADPH oxidase 1): > 17 µM (not active)

SMILES: Cc1ccccc1C1C(C#N)=C2N=C(N)c3c(sc4c3CCCCC4)N2C2=C1C(=O)CC(C)(C)C2 (stereo unspecified)
- IC50 [14]: > 100 µM (active)
- EC50 [15]: > 60 µM (inconclusive)
- EC50 [16]: 1.52 µM (active)
- AC50 (Cytochrome P450 3A4): 1.12 µM (inconclusive)
- CC50 [17]: 33.1 µM (active)

SMILES: c1ccc2sc(C3CCCNC3)nc2c1 (stereo unspecified)
- EC50 [18]: 0.0093 µM (active)
- EC50 [12]: > 50 µM (not active)

SMILES: COc1ccc(CNCc2ccc(Cl)cc2Cl)cc1
- IC50 [19]: 3.13 µM (active)

SMILES: COc1ccc(N/N=C(\C=O)C(=O)c2cccs2)cc1
- AC50 [20]: 3.43 µM (active)
- IC50 [14]: > 100 µM (active)

SMILES: CCOC(=O)c1c(C)oc2c1c(C(c1cccnc1)N1CCOCC1)c(O)c1ccccc12 (stereo unspecified)
- IC50 [21]: 1.17 µM (active)
- AC50 [22]: 8.43 µM (active)
- IC50 (Ephrin type-A receptor 4): 3.58 µM (active)
- EC50 (H4): > 120 µM (not active)
- EC50 [23]: 106 µM (active)
- EC50 [24]: 12.5 µM (active)

SMILES: COC(=O)c1ccccc1C(=O)OC [DIMETHYL PHTHALATE]
- IC50 [4]: > 20 µM (inactive)
- IC50 [5]: > 20 µM (inactive)
- IC50 [6]: > 20 µM (inactive)
- IC50 [7]: > 20 µM (inactive)
- IC50 [8]: > 20 µM (inactive)
- IC50 [9]: > 20 µM (inactive)
- IC50 [10]: > 20 µM (inactive)
- IC50 [11]: > 20 µM (inactive)

SMILES: Oc1[nH]c2ccccc2c1/C=N/c1ccc2c(c1)OCO2
- EC50 (H4): 1.25 µM (active)
- IC50 [1]: > 93.1 µM (not active)

SMILES: Cc1cccc(N2CCN(C(=O)c3cc4c(=O)n(C)c5ccccc5c4n3C)CC2)c1C
- EC50 (Estrogen receptor [3]): 12.8 µM (active)

SMILES: COc1ccc(CNCc2ccc(OC)cc2)cc1
- IC50 [19]: 1.88 µM (active)

SMILES: COc1ccc(NC(=O)CCCSc2ccccc2)cc1
- IC50 [25]: > 100 µM (active)
- IC50 (Protein Tat): > 100 µM (active)

SMILES: Cc1noc(C)c1COc1ccc(C(=O)OCC(=O)N2c3ccccc3NC(=O)C2(C)C)cc1
- IC50 (Estrogen receptor beta [26]): 3.98 µM (not active)
- IC50 (Estrogen receptor [27]): 8.74 µM (active)
- IC50 (Protein Tat): > 100 µM (inconclusive)
- IC50 (Estrogen receptor beta [28]): 2.72 µM (active)

SMILES: COCCn1c(C)cc(C2=NN=C(Nc3ccccc3)SC2)c1C
- EC50 [29]: 2.49 µM (active)
- EC50 (HT-1080): > 50 µM (not active)

SMILES: COc1ccc(-c2csc(Nc3ccc(C)cn3)n2)cc1OC
- IC50 [13]: 35.9 µM (active)
